Source: patent US20260028354A1, “TETRAHYDRONAPHTHALENE DERIVATIVES AS ESTROGEN RECEPTOR DEGRADERS” (REGENT OF THE UNIVERSITY OF MICHIGAN, priority 2022, published 2026)
pIC50: −log10 of the molar value. Read-outs that look alike come from different tables or passages of the source.

Experiments:
CRBN/DDB1 = CRBN/DDB1 (Homo sapiens (Human), UniProt Q96SW2); type: binding; conditions: His tagged CRBN+DDB1, Cy5-labeled Thalidomide probe, one hour; read-out: CRBN HTRF IC50
Experimental: The binding potency was determined using HTRF assay technology (Perkin Elmer). Compounds were serially diluted in DMSO and […] volume was transferred to white 384-well plate.

ERα_LBD (GST) = ERα_LBD (GST) (Homo sapiens (Human), UniProt P03372); assay: IC50 measurements for binding to ERα_LBD (GST), LanthaScreen TR-FRET competitive binding; conditions: ERα_LBD (GST) 4 nM, Fluormone ES2 Green tracer, 60 min; read-out: ERα HTRF IC50
Sequence of ERα_LBD (GST) (P03372 311-547): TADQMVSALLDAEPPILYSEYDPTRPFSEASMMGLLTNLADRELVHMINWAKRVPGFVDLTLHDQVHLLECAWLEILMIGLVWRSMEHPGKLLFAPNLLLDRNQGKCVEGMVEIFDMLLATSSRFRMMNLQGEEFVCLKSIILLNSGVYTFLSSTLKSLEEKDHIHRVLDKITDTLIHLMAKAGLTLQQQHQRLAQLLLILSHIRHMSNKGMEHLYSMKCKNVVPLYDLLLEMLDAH
How it was run: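 Competitive TR-FRET displacement of Fluormone ES2 Green tracer (3 nM) from GST-tagged human ERα LBD (4 nM) with Tb anti-GST (2 nM), in nuclear receptor buffer K plus 5 mM DTT, 1% DMSO. 60 min at room temperature, dark; 520/495 nm ratio vs log[compound] fitted sigmoidally for IC50.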

ER in MCF-7 cells = ER in MCF-7 cells (Homo sapiens (Human), UniProt P03372); assay: In-cell Western (ICW) ER degradation assay in MCF-7 cells; type: cell-based; conditions: for DC50: MCF-7, ER degradation, read-out: MCF7 DC50
Sequence of ER in MCF-7 cells (P03372 whole entry): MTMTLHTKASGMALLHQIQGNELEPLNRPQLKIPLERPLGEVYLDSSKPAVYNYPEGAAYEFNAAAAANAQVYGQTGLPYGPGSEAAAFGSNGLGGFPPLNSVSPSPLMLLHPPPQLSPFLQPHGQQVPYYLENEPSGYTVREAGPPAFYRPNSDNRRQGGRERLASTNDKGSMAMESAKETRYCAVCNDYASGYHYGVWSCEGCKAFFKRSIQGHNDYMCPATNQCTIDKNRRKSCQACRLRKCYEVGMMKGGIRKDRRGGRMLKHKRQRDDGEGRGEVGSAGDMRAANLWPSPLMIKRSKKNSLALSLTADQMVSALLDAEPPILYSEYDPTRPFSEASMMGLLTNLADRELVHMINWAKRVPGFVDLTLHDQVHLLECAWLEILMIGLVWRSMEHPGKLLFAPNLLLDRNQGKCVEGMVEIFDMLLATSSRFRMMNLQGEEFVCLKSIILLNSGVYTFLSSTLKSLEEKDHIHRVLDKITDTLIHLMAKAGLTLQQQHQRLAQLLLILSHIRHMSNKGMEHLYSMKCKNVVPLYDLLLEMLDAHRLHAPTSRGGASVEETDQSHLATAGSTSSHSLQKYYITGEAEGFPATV

ER in T47D cells = ER in T47D cells (Homo sapiens (Human), UniProt P03372); assay: In-cell Western (ICW) ER degradation assay in T47D cells; type: cell-based; conditions: for DC50: ER degradation
Sequence of ER in T47D cells (P03372 whole entry): as above

MCF-7 cells = assay: CellTiter-Glo (CTG) cell proliferation assay in MCF-7 cells; type: cell-based; conditions: Homo sapiens, MCF7, 144 h, MCF-7 cell proliferation, Day 6
Source text: (§1) CellTiter-Glo® (CTG) Assays in MCF-7 and T47D Cell Lines.
(§2) In vitro Assay: MCF-7 and T47D CTG assay

T47D cells = assay: CellTiter-Glo (CTG) cell proliferation assay in T47D cells; type: cell-based; conditions: Homo sapiens, 144 h, Day 6
Source text: as §1, §2

[1] = MCF7, MCF-7, maximal ER degradation, 16 hrs treatment, read-out: MCF7 Dmax
[2] = maximal ER degradation, 16 hrs treatment, read-out: T47D Dmax
[3] = MCF7, read-out: MCF7 Dmax, MCF-7, maximal ER degradation, 16 hrs treatment
[4] = read-out: T47D Dmax, T47D, maximal ER degradation, 16 hrs treatment

Sequence of CRBN/DDB1 (Q96SW2 whole entry, species assumed): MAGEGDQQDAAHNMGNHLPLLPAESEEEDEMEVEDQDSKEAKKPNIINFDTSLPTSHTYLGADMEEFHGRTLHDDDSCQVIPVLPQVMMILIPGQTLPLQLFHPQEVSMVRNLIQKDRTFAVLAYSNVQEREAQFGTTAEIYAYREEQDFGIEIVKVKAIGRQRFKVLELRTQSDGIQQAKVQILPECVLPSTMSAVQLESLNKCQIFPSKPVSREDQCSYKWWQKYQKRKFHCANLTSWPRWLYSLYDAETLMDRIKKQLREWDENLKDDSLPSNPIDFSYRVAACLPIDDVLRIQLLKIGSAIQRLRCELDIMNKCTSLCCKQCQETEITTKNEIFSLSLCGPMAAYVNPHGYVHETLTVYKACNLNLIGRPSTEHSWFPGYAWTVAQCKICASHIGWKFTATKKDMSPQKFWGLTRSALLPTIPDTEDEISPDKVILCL
Sequence of CRBN/DDB1 (Q16531 whole entry partner, species assumed): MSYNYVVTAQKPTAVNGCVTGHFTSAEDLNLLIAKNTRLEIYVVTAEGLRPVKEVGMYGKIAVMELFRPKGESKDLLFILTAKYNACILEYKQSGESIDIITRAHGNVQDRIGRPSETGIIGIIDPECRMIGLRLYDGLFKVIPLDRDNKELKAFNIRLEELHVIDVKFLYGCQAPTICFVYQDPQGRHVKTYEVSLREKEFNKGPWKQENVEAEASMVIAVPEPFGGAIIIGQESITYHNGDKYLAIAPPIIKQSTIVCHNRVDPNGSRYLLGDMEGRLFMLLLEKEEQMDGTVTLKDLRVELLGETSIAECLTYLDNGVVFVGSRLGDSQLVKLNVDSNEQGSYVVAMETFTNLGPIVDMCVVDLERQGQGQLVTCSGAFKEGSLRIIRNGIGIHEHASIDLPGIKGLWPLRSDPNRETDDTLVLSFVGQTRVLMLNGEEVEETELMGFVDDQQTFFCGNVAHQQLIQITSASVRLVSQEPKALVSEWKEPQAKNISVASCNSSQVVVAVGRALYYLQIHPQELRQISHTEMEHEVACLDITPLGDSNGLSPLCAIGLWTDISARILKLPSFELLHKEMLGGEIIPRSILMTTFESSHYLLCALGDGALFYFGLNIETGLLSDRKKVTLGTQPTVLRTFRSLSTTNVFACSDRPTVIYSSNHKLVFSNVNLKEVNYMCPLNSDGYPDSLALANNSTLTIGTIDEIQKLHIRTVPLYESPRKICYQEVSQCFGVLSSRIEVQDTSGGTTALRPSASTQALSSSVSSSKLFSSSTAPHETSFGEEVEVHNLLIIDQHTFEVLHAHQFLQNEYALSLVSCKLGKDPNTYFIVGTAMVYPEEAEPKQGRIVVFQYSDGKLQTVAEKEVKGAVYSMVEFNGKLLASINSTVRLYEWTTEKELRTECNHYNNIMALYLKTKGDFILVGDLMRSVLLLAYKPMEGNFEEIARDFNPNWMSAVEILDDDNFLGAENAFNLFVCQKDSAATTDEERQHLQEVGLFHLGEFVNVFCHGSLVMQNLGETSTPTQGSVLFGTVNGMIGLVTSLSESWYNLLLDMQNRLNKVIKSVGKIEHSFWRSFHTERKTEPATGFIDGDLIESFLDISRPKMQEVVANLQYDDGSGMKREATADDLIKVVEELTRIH

SMILES | pIC50 (CRBN/DDB1) | pIC50 (ERα_LBD (GST)) | Dmax (ER in MCF-7 cells; [1]) [%] | DC50 (ER in MCF-7 cells; 16 hrs treatment) [nM] | DC50 (ER in T47D cells; 16 hrs treatment) [nM] | Dmax (ER in T47D cells; [2]) [%] | pIC50 (MCF-7 cells) | pIC50 (T47D cells) | Dmax (ER in MCF-7 cells; [3]) [%] | Dmax (ER in T47D cells; [4]) [%]
O=C1CC[C@H](N2Cc3c(ccc4c3OC[C@H]3CN(CC5COC6(C5)CN(c5ccc([C@H]7c8ccc(O)cc8CC[C@H]7c7ccccc7)cc5)C6)CCN43)C2=O)C(=O)N1 (single isomer, unassigned) [Compound A41] | > 7.30 | > 8.00 | > 75 | < 1 | < 1 | > 75 | > 8.00 | > 8.00 |  | 
O=C1CC[C@H](N2Cc3cc4c(cc3C2=O)OC[C@@H]2CN(CC3COC5(C3)CN(c3ccc([C@H]6c7ccc(O)cc7CC[C@H]6c6ccccc6)cc3)C5)CCN42)C(=O)N1 (single isomer, unassigned) [Compound A43] | 6.30 to 7.30 | > 8.00 | 50 to 75 | < 1 | < 1 | > 75 | 7.00 to 8.00 | 7.00 to 8.00 |  | 
COc1cc(N2CCC3(CC2)C[C@H](CN2CCN4c5cc6c(cc5OC[C@@H]4C2)C(=O)N([C@H]2CCC(=O)NC2=O)C6)CO3)ccc1[C@@H]1c2ccc(O)cc2CC[C@@H]1c1ccccc1 (single isomer, unassigned) [Compound A135] | 5.30 to 6.30 | > 8.00 | > 75 | < 1 | < 1 |  | > 8.00 | > 8.00 |  | 
COc1cc(N2CCC3(CC2)C[C@@H](CN2CCN4c5cc6c(cc5OC[C@@H]4C2)C(=O)N([C@H]2CCC(=O)NC2=O)C6)CO3)ccc1[C@@H]1c2ccc(O)cc2CC[C@@H]1c1ccccc1 (single isomer, unassigned) [Compound A136] | 5.30 to 6.30 | > 8.00 | > 75 | < 1 | < 1 | > 75 | > 8.00 | > 8.00 |  | 
COc1cc(N2CCC3(CC2)CC(CN2CCC4(CC2)COc2c4ccc4c2CN([C@H]2CCC(=O)NC2=O)C4=O)C3)c(F)cc1[C@@H]1c2ccc(O)cc2CC[C@@H]1c1ccccc1 [Compound A100, (S)-3-(1′-((7-(2-fluoro-4-((1S,2S)-6-hydroxy-2-phenyl-1,2,3,4-tetrahydronaphthalen-1-yl)-5-methoxyphenyl)-7-azaspiro[3.5]nonan-2-yl)methyl)-6-oxo-6,8-dihydro-2H,7H-spiro[furo[2,3-e]isoindole-3,4′-piperidin]-7-yl)piperidine-2,6-dione] | > 7.30 | > 8.00 |  | < 1 | < 1 |  | > 8.00 | > 8.00 | > 75 | > 75
COc1cc(N2CCC3(CC2)C[C@H](CN2CCN4c5cc6c(cc5OC[C@@H]4C2)C(=O)N([C@H]2CCC(=O)NC2=O)C6)CO3)c(F)cc1[C@@H]1c2ccc(O)cc2CC[C@@H]1c1ccccc1 [Compound A173, (S)-3-((S)-3-(((R)-8-(2-fluoro-4-((1S,2S)-6-hydroxy-2-phenyl-1,2,3,4-tetrahydronaphthalen-1-yl)-5-methoxyphenyl)-1-oxa-8-azaspiro[4.5]decan-3-yl)methyl)-8-oxo-1,2,3,4,4a,5,8,10-octahydro-9H-pyrazino[1′,2′:4,5][1,4]oxazino[2,3-f]isoindol-9-yl)piperidine-2,6-dione] |  | > 8.00 | > 75 | < 1 | < 1 | > 75 | > 8.00 | > 8.00 |  | 
COc1cc(N2CCC3(CC2)C[C@H](CN2CCN4c5ccc6c(c5OC[C@H]4C2)CN([C@H]2CCC(=O)NC2=O)C6=O)CO3)c(F)cc1[C@@H]1c2ccc(O)cc2CC[C@@H]1c1ccccc1 [Compound A174, (S)-3-((R)-7-(((R)-8-(2-fluoro-4-((1S,2S)-6-hydroxy-2-phenyl-1,2,3,4-tetrahydronaphthalen-1-yl)-5-methoxyphenyl)-1-oxa-8-azaspiro[4.5]decan-3-yl)methyl)-1-oxo-1,3,5,5a,6,7,8,9-octahydro-2H-pyrazino[1′,2′:4,5][1,4]oxazino[2,3-e]isoindol-2-yl)piperidine-2,6-dione] |  | > 8.00 | > 75 | < 1 | < 1 | > 75 | > 8.00 | > 8.00 |  | 
COc1cc(N2CCC3(CC2)C[C@H](CN2CCC4(CC2)COc2cc5c(cc24)CN([C@H]2CCC(=O)NC2=O)C5=O)CO3)c(F)cc1[C@@H]1c2ccc(O)cc2CC[C@@H]1c1ccccc1 [Compound A175, (S)-3-(1′-(((R)-8-(2-fluoro-4-((1S,2S)-6-hydroxy-2-phenyl-1,2,3,4-tetrahydronaphthalen-1-yl)-5-methoxyphenyl)-1-oxa-8-azaspiro[4.5]decan-3-yl)methyl)-7-oxo-5,7-dihydro-2H,6H-spiro[furo[2,3-f]isoindole-3,4′-piperidin]-6-yl)piperidine-2,6-dione] |  | > 8.00 |  | < 1 | < 1 |  | > 8.00 | > 8.00 | > 75 | > 75
COc1cc(N2CCC3(CC2)C[C@H](CN2CCC4(CC2)COc2c4ccc4c2CN([C@H]2CCC(=O)NC2=O)C4=O)CO3)c(F)cc1[C@@H]1c2ccc(O)cc2CC[C@@H]1c1ccccc1 [Compound A176] |  | > 8.00 |  | < 1 | < 1 |  | > 8.00 | > 8.00 | > 75 | > 75
